Measured values published in patent US7740882B2, “Enhanced oral and transcompartmental delivery of therapeutic or diagnostic agents” (priority 2001, dated 2010).
Where “and” joins values, the source holds several entries; their conditions need not be identical. Equal entries are not always repeated. Entries after “also recorded” stand apart in the source; their conditions may differ.

Legend:
[1] = target: T1, human sodium dependent multivitamin transporter, hSMVT (Homo sapiens, UniProt Q9Y289); assay: Uptake in CHO cells transiently transfected with hSMVT (CHO/hSMVT); settings: for Pm, passive uptake component: CHO/hSMVT cellular uptake, (S.D), n = 3
T1 sequence (Q9Y289 1-635): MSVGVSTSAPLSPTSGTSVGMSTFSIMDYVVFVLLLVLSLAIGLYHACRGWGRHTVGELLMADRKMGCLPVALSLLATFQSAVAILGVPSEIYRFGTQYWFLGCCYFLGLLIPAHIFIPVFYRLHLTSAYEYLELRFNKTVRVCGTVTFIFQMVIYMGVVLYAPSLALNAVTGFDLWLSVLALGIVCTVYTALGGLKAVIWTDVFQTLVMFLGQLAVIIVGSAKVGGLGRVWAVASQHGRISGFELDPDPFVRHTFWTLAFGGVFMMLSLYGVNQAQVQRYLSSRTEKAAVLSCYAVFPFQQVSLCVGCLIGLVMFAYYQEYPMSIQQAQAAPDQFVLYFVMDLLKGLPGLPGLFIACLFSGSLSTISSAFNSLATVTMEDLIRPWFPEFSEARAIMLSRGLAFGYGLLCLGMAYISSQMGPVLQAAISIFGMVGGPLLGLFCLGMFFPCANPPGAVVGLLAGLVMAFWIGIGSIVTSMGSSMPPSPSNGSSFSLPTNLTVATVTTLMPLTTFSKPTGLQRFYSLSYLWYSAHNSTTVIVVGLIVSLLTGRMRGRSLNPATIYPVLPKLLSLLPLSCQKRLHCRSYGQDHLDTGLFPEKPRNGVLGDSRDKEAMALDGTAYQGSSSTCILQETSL
Protocol: (§1) CHO Cell Uptake Studies CHO cells transiently transfected with hSMVT (CHO/hSMVT) were washed twice with 25 mM uptake buffer, containing 25 mM Hepes/Tris pH 7.5, 140 mM NaCl, 5.4 mM KCl, 1.8 CaCl2, 0.8 mM MgSO4 and 5 mM glucose, approximately 48 hours post-transfection. Subsequently, the cells were incubated with the permeant at 37° C. for 10 minutes. Uptake was stopped by washing the cells thrice with ice-cold buffer. Non-specific uptake was measured in parallel experiments with the control pSPORT vector-transfected CHO cells. Finally, the cells were solubilized by 0.1% v/v Triton X-100, and 0.6 ml was used for scintillation counting. From the remaining volume, 10 μl of solution was taken from each well and protein concentration was determined using the Bio-Rad reagent according to the Bradford technique [M. Bradford, A rapid and sensitive method of quantitation of microgram quantities of protein utilizing the principle of protein-dye binding, Anal. Biochem. 72 (1976) 248]. Bovine serum albumin was used as the standard.
Parallel uptake experiments were performed using CHO/pSPORT control cells.
as §1, with “hSMVT” for “hSMVT (CHO/hSMVT)”, “glucose.” for “glucose, approximately 48 hours post-transfection.”, “Washing” for “Uptake was stopped by washing”, “three times” for “thrice”, “buffer stopped drug uptake.” for “buffer.”, “manufacturer's instructions.” for “Bradford technique [M. Bradford, A rapid and sensitive method of quantitation of microgram quantities of protein utilizing the principle of protein-dye binding, Anal. Biochem. 72 (1976) 248].”
as §1, with “Studies.” for “Studies”, “glucose.” for “glucose, approximately 48 hours post-transfection.”, “manufacturer's instructions.” for “Bradford technique [M. Bradford, A rapid and sensitive method of quantitation of microgram quantities of protein utilizing the principle of protein-dye binding, Anal. Biochem. 72 (1976) 248].”

SMVT = target: T2, SMVT (Homo sapiens, UniProt Q9Y289); assay: Inhibition of substrate uptake in CHO/hSMVT cells by 50 μM SMVT substrates; format: in vitro ADME; design: expressed in transfected cells; host or cells: CHO cells (ATCC), transient Lipofectamine transfection; plasmid was a gift of Dr. Puttur D. Prasad
T2 sequence (Q9Y289 1-635): T1 sequence (Q9Y289 1-635)

rat small intestine = settings: read-out: Km of biotin transport; literature; cited from earlier work
[2] = test system: colonic epithelial NCM460 cells; settings: read-out: Km of biotin transport; literature; cited from earlier work
in vitro = settings: human, Caco-2
Protocol: (§2) Caco-2 Cell Transport Studies An Ussing-type diffusion chamber system (Harvard Apparatus, Natick, Mass.) was used to perform transport studies. The apical solution was a MES Ringer's buffer (pH 6.5) consisting of 114.0 mM NaCl, 5.0 mM KCl, 1.1 mM MgSO4, 1.25 mM CaSO4, and 15 mM 2-(N-morpholino)ethanesulfonic acid (MES). The basolateral solution was a Ringer's buffer (pH 7.4) consisting of 114.0 mM NaCl, 5.0 mM KCl, 1.65 mM Na2HPO4, 0.3 mM NaH2PO4, 25 mM NaHCO3, 1.1 mM MgSO4, and 1.25 mM CaSO4. Both buffers contained 25 mM glucose and were adjusted to 290 mOsm/kg using a vapor pressure osmometer (Wescor Inc, Logan, Utah). For transport experiments using filters with cell monolayers, the inserts were rinsed with Ringer's buffet containing 25 mM glucose three times over a 20 min period at room temperature. The TEER was measured for each monolayer before it was mounted onto the diffusion chamber, which was pre-warmed to 37° C. by placement on the heating blocks. The volume of each half-chamber was 5 ml and the surface area of the Snapwell™ filters available for drug transport was 1 cm^2. […] The donor solution consisted of radiolabeled permeant in the apical buffer [apical (AP) to basolateral (BL) study]. Starting at 30 min, samples were taken from the receptor chamber every 15 min until the end of the experiment (105 min). A minimum of three monolayers was used to determine the permeability of test compound in each study and sample analysis was performed using scintillation counting (Perkin Elmer, Gaithersburg, Md.).
(§3) The Michaelis-Menten kinetic parameters of Caco-2 and CHO cell transport were then estimated using non-linear regression.
(§4) Prior to experimentation, diffusion chambers mounted with the Snapwells™ containing Caco-2 cells were equilibrated at 5° C., 10° C., 15° C., 25° C. and 37° C.
(§5) [formula] where Pe is the effective permeability of the substrate transported, Cs is the substrate concentration and Pm and Pc represent the passive and carrier-mediated component of the permeability. All data were initially fitted to a 3-parameter model (Pc, Pm, Km for Caco-2 studies, Jmax, Pm, Km for CHO studies).
(§6) Caco-2 Cell Transport Studies An Ussing-type diffusion chamber system (Harvard Apparatus, Natick, Mass.) was used to perform transport studies. The apical solution was a MES Ringer's buffer (pH 6.5) consisting of 114.0 mM NaCl, 5.0 mM KCl, 1.1 mM MgSO4, 1.25 mM CaSO4, and 15 mM 2-(N-morpholino)ethanesulfonic acid (MES). The basolateral solution was a Ringer's buffer (pH 7.4) consisting of 114.0 mM NaCl, 5.0 mM KCl, 1.65 mM Na2HPO4, 0.3 mM NaH2PO4, 25 mM NaHCO3, 1.1 mM MgSO4, and 1.25 mM CaSO4. Both buffers contained 25 mM glucose and were adjusted to 290 mOsm/kg using a vapor pressure osmometer (Wescor Inc, Logan, Utah). For transport experiments using filters with cell monolayers, the inserts were rinsed with Ringer's buffer containing 25 mM glucose three times over a 20 min period at room temperature. The TEER was measured for each monolayer before it was mounted onto the diffusion chamber, which was pre-warned to 37° C. by placement on the heating blocks.

[3] = test system: human intestinal brush-border membrane vesicles; settings: read-out: Km of biotin transport; literature; cited from earlier work
CHO/pSPORT cells = assay: Non-specific uptake in vector-transfected control CHO/pSPORT cells
Protocol: as §1, with “From the remaining volume, 10 μl of solution was taken from each well and protein concentration was determined using the Bio-Rad reagent according to the Bradford technique [M. Bradford, A rapid and sensitive method of quantitation of microgram quantities of protein utilizing the principle of protein-dye binding, Anal. Biochem. 72 (1976) 248].” left out
CHO Cell Uptake Studies CHO cells transiently transfected with hSMVT were washed twice with 25 mM uptake buffer, containing 25 mM Hepes/Tris pH 7.5, 140 mM NaCl, 5.4 mM KCl, 1.8 CaCl2, 0.8 mM MgSO4 and 5 mM glucose. […] Non-specific uptake was measured in parallel experiments with the control pSPORT vector-transfected CHO cells. […] From the remaining volume, 10 μl of solution was taken from each well and protein concentration was determined using the Bio-Rad reagent according to the manufacturer's instructions. […]
CHO Cell Uptake Studies. […] Non-specific uptake was measured in parallel experiments with the control pSPORT vector-transfected CHO cells. […]

Caco-2 cell monolayers = assay: Absorptive (AP to BL) transport across Caco-2 cell monolayers; settings: Caco-2 absorptive transport
Protocol: as §2, §3, §4, §5, §6

TAR RNA = settings: unpublished results of the inventors
[4] = test system: bovine brain microvessel endothelial cells (BBMECs); assay: Transport (permeability) across BBMEC monolayers, in vitro BBB model; settings: read-out: Km of transport and uptake; BBMECs
Protocol: Non-biotinylated PEGs were used in the control studies.
Isolation and culture of BBMECs. Bovine Brain Microvessel Endothelial Cells (BBMECs) were used as an in vitro model of BBB. BBMECs were isolated from bovine brain by a two-step enzymatic method and the cells were cultured on collagen coated Transwell™ plates or polystyrene plates in an atmosphere of 95% air and 5% CO2 at 37° C. Transendothelial electrical resistance (TEER) and several molecular markers were used to validate the integrity of the cell culture system.
The cells were cultured on 12-well Transwell™ filters for 7-8 days and transport was evaluated. […] All studies were performed at 37° C.

For `O=C(O)CCCC[C@@H]1SC[C@@H]2NC(=O)N[C@@H]21` [Biotin, biotin], the “Pm, passive uptake component” value [1] was 3.50 (3.0) pmol/mg protein/10 min, the Jmax ([1]; uptake in CHO/hSMVT cells) was 174.61±47.53 pmol/mg protein/10 min and 174.61 (47.53) pmol/mg protein/10 min and the “inhibition of RI-K(biotin)-Tat9 uptake” value (SMVT; 0.1 μM RI-K(biotin)-Tat9, inhibitor 50 μM) was “significantly inhibited; also recorded: significantly lowered (p<0.001)”. The “inhibition of biotin-PEG-3400 uptake” value (SMVT; 0.1 μM biotin-PEG-3400, inhibitor 50 μM) was “significantly (p<0.01) inhibited”, the “inhibition of PEG:(RI-K(biotin)-Tat9)8 uptake” value (SMVT; 0.1 μM conjugate, inhibitor 50 μM) was “significantly lower (p<0.05)” and the Km (rat small intestine) was 8.77 µM. The Km [2] was 19.7 µM, the Papp at 105 min (in vitro) was 3.35 ×10⁻⁶ cm/s and the Km [3] was 5.26 µM. For the same compound, the “uptake in CHO/pSPORT cells” value (CHO/pSPORT cells) was 23.73 pmol/mg protein/10 min and the Km (Caco-2 cell monolayers) was 11.3 µM.
For “N-acetyl-D-Lys:(ε-biotin)-D-Arg-D-Arg-D-Arg-D-Gln-D-Arg-D-Arg-D-Lys-D-Lys-D-Arg-NH2 [RI-K(biotin)-Tat9]”, the “TAR RNA binding activity” value (TAR RNA) was “comparable TAR RNA binding activity to Tat9-K(biotin)”, the Km [4] was about 40 µM and the “Jmax without Pm component in the regression model” value ([1]; CHO/hSMVT) was 675.95 pmol/mg protein/10 min. For the same compound, the “Pm, passive uptake component” value [1] was 32.90 (4.48) pmol/mg protein/10 min, the “uptake of substrate alone (control of inhibition study)” value ([1]; CHO/hSMVT, 0.1 μM, 10 min) was about 41.93 pmol/mg protein/10 min and the “uptake, fold greater than RI-K-Tat9” value ([1]; CHO/hSMVT, at 10 μM) was about 500 fold. For the same compound, the Jmax ([1]; uptake in CHO/hSMVT cells) was 227.26±29.33 pmol/mg protein/10 min and 227.26 pmol/mg protein/10 min and 227.26 (29.33) pmol/mg protein/10 min, the Km ([1]; uptake in CHO/hSMVT cells, 10 min, 37° C.) was 1 ± 0.13 µM and the Km (Caco-2 cell monolayers) was 3.27 µM.
